Consider 11 compounds from article PMC8777952, “Lignin Nanoparticles Deliver Novel Thymine Biomimetic Photo-Adducts with Antimelanoma Activity” (International Journal of Molecular Sciences, 2022).

Data set [1] in a line: MTT cell viability assay, FB789 reference cell line. The class given is cell-based. The note with it: FB789 cells (normal human fibroblast). An excerpt: (§1) Preliminary sunscreen data of 4a-d have been reported focusing on SKH1-E cell line, human abdominal skin explants, and in vivo hairless mouse models. Data for photo-adducts 6a-d, 7a-d, and 8a-d are not available. Thymine photo-adducts are well recognized as responsible for the activation of different molecular pathways involved in the cellular response to UV damage, including DNA repair system, melanogenesis, and Nucleotide Excision Repair (NER) system. In addition, TOP1ccs trapped near photo-adducts activates BER and remove (6-4)PPs in NER-deficient cells. TOP1 is highly expressed in malignant tumors, including carcinomas of the colon, prostate, ovary, lung, and melanoma. […] For this reason, we decided to study the antimelanoma activity of 4a-d, 6a-d, and 8a-d against two melanoma cancer cell lines, namely SK-MEL28 and RPMI7951 bearing a different genetic background. The antimelanoma activity was determined using the MTT cell viability assay, following the absorbance change (λmax 570 nm and 630 nm). The human FB789 cell line was used as reference. The CC50 (cytotoxic concentration that causes death of 50% of viable cells), IC50 (minimum concentration inhibiting 50% of the melanoma cells), and Selective Index (SI) (ratio between IC50 of reference cell line versus melanoma cell line) values are reported in Table 5. […] Compounds 4a-d were ineffective against melanoma cell lines. […] 234. Next, the antimelanoma activity of compounds 8a and 8b was evaluated after loading inside LNPs.
(§2) FB789 was grown in DMEM/F10, RPMI7951 melanoma cancer cells were grown in Minimal Essential Medium (MEM), while SK-Mel 28 melanoma cancer cells were grown in Dulbecco’s Modified Eagle Medium (DMEM). All culture media were supplemented with 10% Fetal Bovine Serum (FBS) plus 1.0 mM glutamine (40 µg/mL). The antimelanoma activity of 4a-d, 6a-d, and 8a-d was evaluated by MTT viability assay according to reference. Briefly, aliquots of the appropriate compound ([…]) were solubilized in dimethyl sulfoxide (one drops, DMSO) and administered to the selected cell line. After incubation for 3 h at 37 °C with MTT (0.5 mg/mL) the supernatant was removed, and […] of lysis solution (10% SDS and 0.6% acetic acid) was added to dissolve the formazan crystals. Optical density detection was performed by DTX880 Multimode Detector (Beckman Coulter) with 630 nm (background) and 570 nm filters. The percentage of cell viability was calculated as follows: % cell viability = 100–% cell cytotoxicity. The experiments for the evaluation of the antimelanoma activity of LNPs/8a and LNPs/8b were performed in a similar way using the appropriate amount of nanoparticles containing 1.0 mmol of the active compound and analyzing the antimelanoma activity at three different release times (2, 4, and 24 h).
(Tetrazolium dyes change colour on reduction, which living cells bring about.)

A further data set deals with SK-Mel28. Description: MTT cell viability assay, SK-Mel28 melanoma cells. It counts as cell-based, human. The note with it: for SI (SKMel28): 24 h, ratio reference cell line FB789 versus melanoma cell line; for IC50: Homo sapiens, SK-MEL-28, 24 h.
Text: as §1, §2

In another data set the test system is RPMI7951. Description: MTT cell viability assay, RPMI7951 melanoma cells. It counts as cell-based, human. The note with it: for SI (RPMI7951): 24 h, ratio reference cell line FB789 versus melanoma cell line; for IC50: Homo sapiens, RPMI-7951, 24 h.
Text: as §1, §2

Data set [2] can be described thus: Loading capacity and loading efficiency of lignin nanoparticles. It counts as physicochemical. The method, then:
A further increase in the secondary solvent afforded low stable colloidal LNPs (18 mL; Table 3, entry 4) and aggregates (24 mL; Table 3, entry 5). Finally, LNPs were not formed after the addition of high volumes of deionized water (Table 3, entries 6–8). The optimal conditions affording stable colloidal LNPs (1:5 w/w and 1:10 w/w 4a/KL ratio, 3.0 mL of DMI/water 2:1 v/v, and 6.0 mL of secondary solvent) were successively applied for the encapsulation of 4b-d, and of the most abundant photo-adducts 6a-d and 8a-d. The loading capacity (LC) and loading efficiency (LE) Equations (1) and (2) were measured as a function of the concentration of the encapsulated compound [55, 56, 57, 58].
LNPs were separated by centrifugation, and the supernatant was analyzed by HPLC at λmax value of the encapsulated compound (271 nm for 4a-d, 191 nm for 6a-d, and 192 nm for 8a-d, respectively). Irrespective from the experimental conditions, the highest LE and LC were obtained in the presence of the highest value of the compound/KL ratio (compound/KL ratio of 1:5). […] (1) LC %:weight of starting drug−weight of unloaded drug/weight of lignin (2) LE %:weight of starting drug−weight of unloaded drug/weight of starting drug
LNPs were produced and loaded by the nanoprecipitation technique. The appropriate compound (3 mg) was dissolved in DMI/water (3.0 mL) at 50 °C under gentle stirring conditions followed by the addition of KL (15 mg). The fast addition of deionized water (6.0 mL) instantaneously produced LNPs. LNPs were then recovered by centrifugation (7500 rpm), washed with deionized water (10 mL) for 3 times, and lyophilized. The loading capacity (LC) and loading efficiency (LE) were evaluated by UHPLC analysis.

Details of data set [3]: method as in PMID 25075037. The note with it: commercial antitumor agents; cited from earlier work.
The nature of data set [4]: UV shielding (photo-protective) capacity of loaded LNPs. The class given is physicochemical. The note with it: after 15 min of irradiation, loaded in LNPs versus free compound. The method, then: The UV shielding capacity of LNPs allows them to protect bioactive compounds from premature deactivation. To evaluate the photo-protective role of LNPs we studied the irradiation of LNPs/4a, LNPs/6a, LNPs/7a, and LNPs/8a as a selected representative example of thymine dimers. The samples were suspended in DMI/water mixture (2:1 v/v, 1.0 mL) and treated with UV under previously reported experimental conditions. At scheduled times (5, 10, and 15 min), aliquots (0.2 mL) of the suspension were withdrawn and analyzed. An excess of DMI (1.0 mL) was added to disaggregate LNPs, followed by filtration of residual lignin. The residual concentrations of 4a, 6a, 7a, and 8a (expressed as % with respect to the starting material) were evaluated at λmax 271 nm. Data were compared with 4a, 6a, 7a, and 8a after irradiation under similar experimental conditions (Figure 3).
LNPs/4a were prepared following the standard procedure previously described. Typically, LNPs/4a (1.0 mg) suspended in DMI/water mixture (2:1 ratio, 1.0 mL) were deposited on a glass lens and irradiated with Haerus source (250 Watt, the lamp was at 20.0 cm distance). […] The photo-protection capacity of LNPs was determined by measuring the decrease in absorbance (λmax 271 nm) of recovered 4a compared with free reference (Varian UVCary-50). […]

As for `Cc1cn(CCCn2cc(C)c(=O)[nH]c2=O)c(=O)[nH]c1=O` [Compound 4a, N1,N1′-(propane-1,3-diyl)bis-thymine], the CC50 at 24 h in data set [1] stood at 1450 ± 56.2 µM. Also, in the data set with SK-Mel28, the “SI (SKMel28)” value was found to be 4.7 and the concentration for half-maximal inhibition (IC50) was 304.3 ± 2.4 µM. In the data set with RPMI7951, the “SI (RPMI7951)” value is given as 2.7 and inhibition was half-maximal at 543.1 ± 2.7 µM (IC50). In data set [2] (Compd/KL ratio 1:5), the LC% is recorded as 5.59% and the LE% stood at 49.94%. In addition, in data set [2] (Compd/KL ratio 1:10), the LC% is listed as 4.93% and the LE% was determined as 49.26%.
Regarding `CC12C(=O)NC(=O)N3CCCN4C(=O)NC(=O)C1(C)C4C32` (stereo not shown) [Compound 6a, 6a,6b-dimethylhexahydro-1H-3a,5,8,9a-tetraazacyclohepta[def]biphenylene 4,6,7,9(5H,8H)-tetraone], the CC50 at 24 h in data set [1] stood at 375 ± 28.2 µM. Moreover, in the data set on SK-Mel28, the “SI (SKMel28)” value is 4.39 and the IC50 is 85.2 ± 0.9 µM. Moreover, in the data set on RPMI7951, the “SI (RPMI7951)” value was 2.7 and it took 138 ± 2.1 µM to reach half-maximal inhibition (IC50). In data set [2] (Compd/KL ratio 1:5), the LC% is 6.93% and the LE% stood at 37.40%. Besides, in data set [2] (Compd/KL ratio 1:10), the LC% is listed as 6.81% and the LE% was 41.12%.
In the case of `COc1cccc2c1C(=O)c1c(O)c3c(c(O)c1C2=O)C[C@@](O)(C(=O)CO)C[C@@H]3O[C@H]1C[C@H](N)[C@H](O)[C@H](C)O1` [doxorubicin], in data set [3], the SI is 26.0.
On to `CC[C@@]1(O)C(=O)OCc2c1cc1n(c2=O)Cc2cc3ccccc3nc2-1` [camptothecin], for which the SI in data set [3] is 88.3.
The compound `Cc1cn(CCCCn2cc(C)c(=O)[nH]c2=O)c(=O)[nH]c1=O` [Compound 4b, N1,N1′-(butane-1,4-diyl)bis-thymine] came in with a CC50 at 24 h in data set [1] of 839 ± 10.9 µM. Besides, in the data set on SK-Mel28, the “SI (SKMel28)” value is 4.9 and the IC50 stood at 169 ± 4.6 µM. In addition, in the data set on RPMI7951, the “SI (RPMI7951)” value is 0.07 and the IC50 came out at 12400 µM. Further, in data set [2] (Compd/KL ratio 1:5), the LC% is given as 10.38% and the LE% worked out at 51.91%. For the same compound, in data set [2] (Compd/KL ratio 1:10), the LC% turned out to be 4.24% and the LE% was determined as 52.40%.
Regarding `O=c1[nH]cc(F)c(=O)[nH]1` [Compound 5-FU, 5-fluro uracil], the SI in data set [3] is 55.6.
`CC12C(=O)NC(=O)N3CCCCCCN4C(=O)NC(=O)C1(C)C4C32` (stereo not shown) [Compound 6d, 9a,9b-dimethyldecahydro-6a,8,11,12a-tetraazacyclodeca[def]biphenylene-7,9,10,12(8H,11H)-tetraone] had a CC50 at 24 h in data set [1] of 377 ± 14.8 µM. Moreover, in the data set with SK-Mel28, the “SI (SKMel28)” value came out at 4.3 and inhibition was half-maximal at 87.9 ± 1.9 µM (IC50). Besides, in the data set on RPMI7951, the “SI (RPMI7951)” value was determined as 1.6 and the IC50 amounted to 234.9 ± 1.6 µM. In data set [2] (Compd/KL ratio 1:5), the LC% came to 13.22% and the LE% was 72.61%. In data set [2] (Compd/KL ratio 1:10), the LC% was found to be 11.54% and the LE% worked out at 71.98%.
Take `Cc1cn2c(=O)nc1C1N(CCC2)C(=O)NC(=O)C1(C)O` (stereo not shown) [Compound 7a, 4-hydroxy-4,6-dimethyl-4,4a,10,11-tetrahydro-1H,9H-5,8-(azenomethano)pyrimido[1,6-e][1,5]diazonine-1,3,13(2H)-trione]: the photo-protection capacity in data set [4] was about 40%.
In data set [1], `Cc1cn(CCCCCn2cc(C)c(=O)[nH]c2=O)c(=O)[nH]c1=O` [Compound 4c, N1,N1′-(pentane-1,5-diyl)bis-thymine] yielded a CC50 at 24 h of 1660 ± 36.3 µM. Further, in the data set on SK-Mel28, the “SI (SKMel28)” value is reported as 5.7 and the IC50 was found to be 292.9 ± 2.5 µM. Moreover, in the data set on RPMI7951, the “SI (RPMI7951)” value worked out at 4.6 and the IC50 came out at 357 ± 5.1 µM. In data set [2] (Compd/KL ratio 1:5), the LC% is listed as 12.52% and the LE% worked out at 69.70%. Moreover, in data set [2] (Compd/KL ratio 1:10), the LC% is reported as 6.97% and the LE% worked out at 62.59%.
`CC12C(=O)NC(=O)N3CCCCN4C(=O)NC(=O)C1(C)C4C32` (stereo not shown) [Compound 6b, 7a,7b-dimethyloctahydro-4a,6,9,10a-tetraazacycloocta[def]biphenylene-5,7,8,10(6H,9H)-tetraone] gave a CC50 at 24 h in data set [1] of 109 ± 5.4 µM. In the data set on SK-Mel28, the “SI (SKMel28)” value was determined as 6.09 and inhibition was half-maximal at 17.9 ± 1.9 µM (IC50). In the data set on RPMI7951, the “SI (RPMI7951)” value is listed as 1.4 and inhibition was half-maximal at 77.8 ± 1.8 µM (IC50). Moreover, in data set [2] (Compd/KL ratio 1:5), the LC% is 9.59% and the LE% is on record as 50.94%. Further, in data set [2] (Compd/KL ratio 1:10), the LC% was 9.33% and the LE% came out at 50.74%.
`CC12C(=O)NC(=O)N3CCCCCN4C(=O)NC(=O)C1(C)C4C32` (stereo not shown) [Compound 6c, 8a,8b-dimethyloctahydro-1H-5a,7,10,11a-tetraazacyclonona[def]biphenylene-6,8,9,11(7H,10H)-tetraone]: the midpoint of cytotoxicity in data set [1], the CC50 at 24 h, lay at 234 ± 7.3 µM. Also, in the data set on SK-Mel28, the “SI (SKMel28)” value was 0.83 and the IC50 was determined as 282 ± 4.4 µM. In addition, in the data set with RPMI7951, the “SI (RPMI7951)” value is recorded as 1.2 and the IC50 was determined as 195 ± 3.8 µM. Moreover, in data set [2] (Compd/KL ratio 1:5), the LC% came to 11.46% and the LE% amounted to 51.12%. Moreover, in data set [2] (Compd/KL ratio 1:10), the LC% is given as 10.48% and the LE% amounted to 47.86%.

The CC50 is the concentration that lowers cell viability or growth by half. The term IC50 denotes the midpoint of a concentration-inhibition curve. A higher IC50 goes with weaker potency in that assay.
